In patent publication US11052092B2, “N-{[2-(piperidin-1-yl)phenyl](phenyl)methyl}-2-(3-oxo-3,4-dihydro-2H-1,4-benzoxazin-7-yl)acetamide derivatives and related compounds as ROR-gamma modulators for treating autoimmune diseases” (Genfit, priority 2017, dated 2021):
Structures can show the parent of a compound that is named as a salt.

SMILES	melting point [°C]
Cc1ccc(C(NC(=O)Cc2ccc3[nH]c(N4CCOCC4)nc3c2)c2ccc(C)o2)c(N2CCCCC2)c1 (centres unmarked) (as salt: HCl) [Cpd. 93, N-{[4-methyl-2-(piperidin-1-yl)phenyl](5-methylfuran-2-yl)methyl}-2-[2-(morpholin-4-yl)-1H-1,3-benzodiazol-5-yl]acetamide]	125
Cc1ccc(C(NC(=O)C2(c3ccc4c(c3)CN(S(C)(=O)=O)C4)CC2)c2ccc(Cl)o2)c(N2CCCC2)c1 (centres unmarked) (as salt: HCl) [Cpd. 80, N-[(5-chlorofuran-2-yl)[4-methyl-2-(pyrrolidin-1-yl)phenyl]methyl]-1-(2-methanesulfonyl-2,3-dihydro-1H-isoindol-5-yl)cyclopropane-1-carboxamide]	82
Cc1ccc(C(NC(=O)Cc2ccc3c(c2)CS(=O)(=O)C3)c2ccc(C)o2)c(N2CCCCC2)c1 (centres unmarked) (as salt: HCl) [Cpd. 78, 2-(2,2-dioxo-1,3-dihydro-2-benzothiophen-5-yl)-N-{[4-methyl-2-(piperidin-1-yl)phenyl](5-methylfuran-2-yl)methyl}acetamide]	87
Cc1ccc(C(NC(=O)C2(c3ccc4c(c3)CN(S(C)(=O)=O)C4)CC2)c2ccc(C)o2)c(N2CCCC2)c1 (centres unmarked) (as salt: HCl) [Cpd. 73, 1-(2-methanesulfonyl-2,3-dihydro-1H-isoindol-5-yl)-N-{[4-methyl-2-(pyrrolidin-1-yl)phenyl](5-methylfuran-2-yl)methyl}cyclopropane-1-carboxamide]	84
Cc1ccc(C(NC(=O)C2(c3ccc4c(c3)CS(=O)(=O)N4CC3CCOCC3)CC2)c2ccc(C)o2)c(C)c1 (centres unmarked) (as salt: HCl) [Cpd. 157, N-[(2,4-dimethylphenyl)(5-methylfuran-2-yl)methyl]-1-[1-(oxan-4-ylmethyl)-2,2-dioxo-1,3-dihydro-2,1-benzothiazol-5-yl]cyclopropane-1-carboxamide]	76
Cc1ccc(C(NC(=O)C2(c3ccc4c(c3)OCC(=O)N4)CC2)c2cccc(Cl)c2)c(C)c1 (centres unmarked) (as salt: HCl) [Cpd. 143, N-[(3-chlorophenyl)(2,4-dimethylphenyl)methyl]-1-(3-oxo-3,4-dihydro-2H-1,4-benzoxazin-7-yl)cyclopropane-1-carboxamide]	181
Cc1ccc(C(NC(=O)Cc2ccc3c(c2)CCN3C(=O)C2CC2)c2ccc(C)o2)c(N2CCCCC2)c1 (centres unmarked) (as salt: HCl) [Cpd. 123, 2-(1-cyclopropanecarbonyl-2,3-dihydro-1H-indol-5-yl)-N-{[4-methyl-2-(piperidin-1-yl)phenyl](5-methylfuran-2-yl)methyl}acetamide]	94
Cc1cnc(C(NC(=O)C2(c3ccc4c(c3)OCS(=O)(=O)N4)CC2)c2ccc(C)o2)c(C)c1 (centres unmarked) (as salt: HCl) [Cpd. 153, N-[(3,5-dimethylpyridin-2-yl)(5-methylfuran-2-yl)methyl]-1-(2,2-dioxo-1,3-dihydro-4,2,1-benzoxathiazin-6-yl)cyclopropane-1-carboxamide]	189
Cc1ccc(C(NC(=O)C2(c3ccc4c(c3)OCO4)CC2)c2ccc(C)o2)c(Br)c1 (centres unmarked) (as salt: HCl) [Cpd. 161, 1-(2H-1,3-benzodioxol-5-yl)-N-[(2-bromo-4-methylphenyl)(5-methylfuran-2-yl)methyl]cyclopropane-1-carboxamide]	55
Cc1ccc(C(NC(=O)C2(c3ccc4c(c3)CC(=O)N4)CC2)c2ccc(Cl)o2)c(C)c1 (centres unmarked) (as salt: HCl) [Cpd. 86, N-[(5-chlorofuran-2-yl)(2,4-dimethylphenyl)methyl]-1-(2-oxo-2,3-dihydro-1H-indol-5-yl)cyclopropane-1-carboxamide]	78
Cc1ccc(C(NC(=O)C2(c3ccc4c(c3)OCO4)CC2)c2ccc(C)o2)c(N2CCCCC2)c1 (centres unmarked) (as salt: HCl) [Cpd. 164, 1-(2H-1,3-benzodioxol-5-yl)-N-{[4-methyl-2-(piperidin-1-yl)phenyl](5-methylfuran-2-yl)methyl}cyclopropane-1-carboxamide]	51
Cc1ccc(C(NC(=O)C2(c3ccc4c(c3)CS(=O)(=O)C4)CC2)c2ccc(Cl)o2)c(C)c1 (centres unmarked) (as salt: HCl) [Cpd. 72, N-[(5-chlorofuran-2-yl)(2,4-dimethylphenyl)methyl]-1-(2,2-dioxo-1,3-dihydro-2-benzothiophen-5-yl)cyclopropane-1-carboxamide]	80
Cc1ccc(C(NC(=O)C2(c3ccc4c(c3)OCC(=O)N4)CC2)c2ccco2)c(C)c1 (centres unmarked) (as salt: HCl) [Cpd. 139, N-[(2,4-dimethylphenyl)(furan-2-yl)methyl]-1-(3-oxo-3,4-dihydro-2H-1,4-benzoxazin-7-yl)cyclopropane-1-carboxamide]	180
Cc1ccc(C(NC(=O)C2(c3ccc4c(c3)OCS(=O)(=O)N4)CC2)c2ccc(C)o2)c(N(C)C)c1 (centres unmarked) (as salt: HCl) [Cpd. 148, N-{[2-(dimethylamino)-4-methylphenyl](5-methylfuran-2-yl)methyl}-1-(2,2-dioxo-1,3-dihydro-4,2,1-benzoxathiazin-6-yl)cyclopropane-1-carboxamide]	105
Cc1ccc(C(NC(=O)C2(c3cc(F)c4c(c3)CC(=O)N4)CC2)c2ccc(C)o2)c(C)c1 (centres unmarked) (as salt: HCl) [Cpd. 158, N-[(2,4-dimethylphenyl)(5-methylfuran-2-yl)methyl]-1-(7-fluoro-2-oxo-2,3-dihydro-1H-indol-5-yl)cyclopropane-1-carboxamide]	102
Cc1ccc(C(NC(=O)C2(c3ccc4c(c3)CS(=O)(=O)N4C)CC2)c2ccc(Cl)o2)c(C)c1 (centres unmarked) (as salt: HCl) [Cpd. 160, N-[(5-chlorofuran-2-yl)(2,4-dimethylphenyl)methyl]-1-(1-methyl-2,2-dioxo-1,3-dihydro-2,1-benzothiazol-5-yl)cyclopropane-1-carboxamide]	70
Cc1ccc(C(NC(=O)Cc2ccc3c(c2)C(O)CC3)c2ccc(C)o2)c(N2CCCCC2)c1 (centres unmarked) (as salt: sodium) [Cpd. 85, 2-(3-hydroxy-2,3-dihydro-1H-inden-5-yl)-N-{[4-methyl-2-(piperidin-1-yl)phenyl](5-methylfuran-2-yl)methyl}acetamide]	60
Cc1ccc(C(NC(=O)Cc2ccc3[nH]c(C)nc3c2)c2ccccc2)c(N2CCCC2)c1 (centres unmarked) (as salt: HCl) [Cpd. 82, 2-(2-methyl-1H-1,3-benzodiazol-5-yl)-N-{[4-methyl-2-(pyrrolidin-1-yl)phenyl](phenyl)methyl}acetamide]	132
Cc1ccc(C(NC(=O)Cc2ccc3c(c2)C(C)(C)C(=O)N3C)c2ccc(C)o2)c(N2CCCCC2)c1 (centres unmarked) (as salt: HCl) [Cpd. 40, N-{[4-methyl-2-(piperidin-1-yl)phenyl](5-methylfuran-2-yl)methyl}-2-(1,3,3-trimethyl-2-oxo-2,3-dihydro-1H-indol-5-yl)acetamide]	75

The remaining lines, values ahead:

melting point [°C]	SMILES
58	Cc1ccc(C(NC(=O)C2(c3ccc4c(c3)CCC4O)CC2)c2ccc(C)o2)c(C)c1 (centres unmarked) (as salt: sodium) [Cpd. 155, N-[(2,4-dimethylphenyl)(5-methylfuran-2-yl)methyl]-1-(1-hydroxy-2,3-dihydro-1H-inden-5-yl)cyclopropane-1-carboxamide]
110	Cc1ccc(C(NC(=O)Cc2ccc3c(c2)C(O)C(=O)N3)c2ccc(C)o2)c(N2CCCCC2)c1 (centres unmarked) (as salt: sodium) [Cpd. 46, 2-(3-hydroxy-2-oxo-2,3-dihydro-1H-indol-5-yl)-N-{[4-methyl-2-(piperidin-1-yl)phenyl](5-methylfuran-2-yl)methyl}acetamide]
107	Cc1ccc(C(NC(=O)Cc2ccc3[nH]cc(CCS(C)(=O)=O)c3c2)c2ccc(C)o2)c(N2CCCCC2)c1 (centres unmarked) (as salt: HCl) [Cpd. 98, 2-[3-(2-methanesulfonylethyl)-1H-indol-5-yl]-N-{[4-methyl-2-(piperidin-1-yl)phenyl](5-methylfuran-2-yl)methyl}acetamide]
56	Cc1ccc(C(NC(=O)C2(c3ccc4c(c3)CCC4=O)CC2)c2ccc(C)o2)c(C)c1 (centres unmarked) (as salt: HCl) [Cpd. 141, N-[(2,4-dimethylphenyl)(5-methylfuran-2-yl)methyl]-1-(1-oxo-2,3-dihydro-1H-inden-5-yl)cyclopropane-1-carboxamide]
213	Cc1ccc(C(NC(=O)Cc2ccc3[nH]cc(C(=O)CS(C)(=O)=O)c3c2)c2ccc(C)o2)c(C)c1 (centres unmarked) (as salt: HCl) [Cpd. 107, N-[(2,4-dimethylphenyl)(5-methylfuran-2-yl)methyl]-2-[3-(2-methanesulfonylacetyl)-1H-indol-5-yl]acetamide]
70	Cc1ccc(C(NC(=O)C2(c3ccc4[nH]cc(CCO)c4c3)CC2)c2ccc(Cl)o2)c(C)c1 (centres unmarked) (as salt: HCl) [Cpd. 62, N-[(5-chlorofuran-2-yl)(2,4-dimethylphenyl)methyl]-1-[3-(2-hydroxyethyl)-1H-indol-5-yl]cyclopropane-1-carboxamide]
62	Cc1ccc(C(NC(=O)C2(c3ccc4[nH]ccc4c3)CC2)c2ccc(C)o2)c(C)c1 (centres unmarked) (as salt: HCl) [Cpd. 108, N-[(2,4-dimethylphenyl)(5-methylfuran-2-yl)methyl]-1-(1H-indol-5-yl)cyclopropane-1-carboxamide]
83	Cc1ccc(C(NC(=O)Cc2ccc3c(c2)CN(S(C)(=O)=O)C3)c2ccc(C)o2)c(N2CCCCC2)c1 (centres unmarked) (as salt: HCl) [Cpd. 41, 2-(2-methanesulfonyl-2,3-dihydro-1H-isoindol-5-yl)-N-{[4-methyl-2-(piperidin-1-yl)phenyl](5-methylfuran-2-yl)methyl}acetamide]
96	Cc1ccc(C(NC(=O)C2(c3ccc4c(c3)OCS(=O)(=O)N4)CC2)c2ccc(C)o2)c(C)c1 (centres unmarked) (as salt: HCl) [Cpd. 124, N-[(2,4-dimethylphenyl)(5-methylfuran-2-yl)methyl]-1-(2,2-dioxo-1,3-dihydro-4,2,1-benzoxathiazin-6-yl)cyclopropane-1-carboxamide]
55	COCC(=O)N1Cc2ccc(C3(C(=O)NC(c4ccc(C)o4)c4ccc(C)cc4C)CC3)cc2C1 (centres unmarked) (as salt: HCl) [Cpd. 122, N-[(2,4-dimethylphenyl)(5-methylfuran-2-yl)methyl]-1-[2-(2-methoxyacetyl)-2,3-dihydro-1H-isoindol-5-yl]cyclopropane-1-carboxamide]
